In article PMC9504029, “Identification and Characterization of Novel Small-Molecule SMOX Inhibitors” (Medical Sciences, 2022):

Experiments:
Assay type in all cases: biochemical
SMOX = biological target: T1, SMOX (Homo sapiens, UniProt Q9NWM0); assay: SMOX enzyme activity, HRP-luminol chemiluminescence assay; conditions: 2 mM spermine
T1 construct: using 0.3 µg/mL of purified SMOX enzyme and 2 mM of spermine substrate
Protocol: As the catabolism of spermine by SMOX results in the stoichiometric production of H2O2, enzyme activity was quantified by chemiluminescence generated by the horseradish peroxidase-catalyzed oxidation of luminol in 96-well plates (Costar #3912; white, flat bottom), as previously described. All assays were performed in 0.083 M glycine buffer at a pH of 8 using 0.3 µg/mL of purified SMOX enzyme and 2 mM of spermine substrate. Phosphate buffer was not used to prevent the formation of polyamine–phosphate complexes. Enzyme reactions were initiated by the addition of SMOX and HRP to all other assay components; inhibitors were not pre-incubated with enzyme. Triplicate determinations were obtained for each measurement by recording the luminescence (AUC) over 60 s. Hit compounds were then confirmed by monitoring the assay over 600 s. Each triplicate assay point contained a 4th control well to monitor and normalize the data with regards to luminescent decay over time. The compounds were initially screened for activity at a concentration of 20 µM. […] The known SMOX inhibitor, MDL-72527, was used as a control. The hit compounds were then characterized by IC50 and kinetic analyses. Percent inhibition values are reported as triplicate mean % SMOX inhibition ± SD compared to the vehicle control. IC50 values were calculated in GraphPad Prism 9.3 software (Graph-Pad, San Diego, California) using a non-linear regression analysis ([Inhibitor] vs. normalized response—variable slope). Data for all enzyme assays were generated using a SpectraMax M5 plate reader (Molecular Devices) equipped with SOFTmax PRO 7.0.3 software.

recombinant human MAO-A = biological target: T2, recombinant human MAO-A (Homo sapiens, UniProt P21397); assay: MAO-Glo assay, MAO-A; conditions: read-out: % Inhibition at 20 μM ± SD, MAO-A
T2 construct: purchased Sigma-Aldrich M7316-1VL
T2 sequence (P21397 1-527): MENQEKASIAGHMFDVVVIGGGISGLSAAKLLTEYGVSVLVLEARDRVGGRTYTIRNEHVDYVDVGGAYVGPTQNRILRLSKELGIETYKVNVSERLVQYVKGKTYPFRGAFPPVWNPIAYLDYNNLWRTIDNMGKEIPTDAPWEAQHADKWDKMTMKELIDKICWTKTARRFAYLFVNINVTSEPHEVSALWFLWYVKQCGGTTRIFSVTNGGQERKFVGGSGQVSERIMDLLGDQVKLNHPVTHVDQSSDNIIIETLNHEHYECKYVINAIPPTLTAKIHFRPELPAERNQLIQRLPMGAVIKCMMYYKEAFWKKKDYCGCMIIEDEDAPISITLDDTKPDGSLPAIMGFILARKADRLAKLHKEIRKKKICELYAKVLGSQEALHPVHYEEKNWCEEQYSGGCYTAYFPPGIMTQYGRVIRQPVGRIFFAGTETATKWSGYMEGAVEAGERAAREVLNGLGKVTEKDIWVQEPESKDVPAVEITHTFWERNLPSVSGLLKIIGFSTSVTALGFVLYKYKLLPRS
Protocol: (§1) To determine selectivity, the compounds were tested for activity against the related FAD-dependent amine oxidase enzymes LSD1, MAO-A, and MAO-B. LSD1 activity was assessed using a commercially available assay kit (#700120, Cayman Chemical, Ann Arbor, MI, USA), in which the enzyme activity was determined by the horseradish peroxidase-catalyzed oxidation of 10-acetyl-3,7-dihydroxyphenoxazine to the highly fluorescent resorufin in response to H2O2 production. Monoamine oxidase activity was determined using recombinant human MAO-A and MAO-B (M7316-1VL & M7441-1VL, Sigma-Aldrich, St. Louis, MO, USA) and a commercially available assay kit (#V1401, MAO-Glo, Promega, Madison, WI, USA), which utilizes the MAO-catalyzed oxidation of a luciferin derivative coupled with esterase activity to produce luminescence. Fluorescent and luminescent readout was obtained using a SpectraMax M5 plate reader (Molecular Devices) equipped with SOFTmax PRO 7.0.3 software. […] Values were reported as mean % inhibition ± SD of triplicate assay wells normalized to background activity and compared to the vehicle control.

recombinant human MAO-B = biological target: T3, recombinant human MAO-B (Homo sapiens, UniProt P27338); assay: MAO-Glo assay, MAO-B; conditions: read-out: % Inhibition at 20 μM ± SD, MAO-B
T3 construct: purchased Sigma-Aldrich M7441-1VL
T3 sequence (P27338 1-520): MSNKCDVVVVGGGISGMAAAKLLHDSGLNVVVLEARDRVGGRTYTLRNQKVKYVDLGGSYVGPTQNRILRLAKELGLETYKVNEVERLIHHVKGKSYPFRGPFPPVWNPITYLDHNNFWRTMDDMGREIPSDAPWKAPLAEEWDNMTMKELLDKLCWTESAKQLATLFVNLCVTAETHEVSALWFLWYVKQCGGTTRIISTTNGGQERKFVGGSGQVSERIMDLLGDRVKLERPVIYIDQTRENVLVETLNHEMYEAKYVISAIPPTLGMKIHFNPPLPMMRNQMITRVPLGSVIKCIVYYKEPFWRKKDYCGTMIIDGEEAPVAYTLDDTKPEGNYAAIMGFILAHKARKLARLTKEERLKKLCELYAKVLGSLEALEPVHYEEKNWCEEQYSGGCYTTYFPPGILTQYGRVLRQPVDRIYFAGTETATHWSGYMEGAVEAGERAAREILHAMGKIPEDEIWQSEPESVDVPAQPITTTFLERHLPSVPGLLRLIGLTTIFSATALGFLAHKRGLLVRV
Protocol: as §1

T1 sequence (Q9NWM0 whole entry): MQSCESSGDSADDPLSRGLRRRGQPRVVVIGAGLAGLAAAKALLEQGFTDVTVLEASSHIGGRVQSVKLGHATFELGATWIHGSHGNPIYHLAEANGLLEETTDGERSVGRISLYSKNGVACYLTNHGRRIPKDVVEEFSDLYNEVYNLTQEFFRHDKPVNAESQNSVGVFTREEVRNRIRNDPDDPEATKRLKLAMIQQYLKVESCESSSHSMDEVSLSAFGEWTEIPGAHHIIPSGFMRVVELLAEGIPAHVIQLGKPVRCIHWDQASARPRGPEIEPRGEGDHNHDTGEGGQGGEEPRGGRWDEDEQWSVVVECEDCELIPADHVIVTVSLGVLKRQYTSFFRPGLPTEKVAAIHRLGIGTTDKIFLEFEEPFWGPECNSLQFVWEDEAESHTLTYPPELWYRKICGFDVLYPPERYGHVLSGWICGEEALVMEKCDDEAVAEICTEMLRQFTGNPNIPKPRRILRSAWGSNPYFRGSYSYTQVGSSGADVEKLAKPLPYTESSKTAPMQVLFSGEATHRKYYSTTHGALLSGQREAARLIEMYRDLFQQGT

Cc1cc([C@H](O)CNCCCNC(=N)N)cc(C)c1O [Compound 6] was tested, and the inhibition at 20 µM (SMOX; 20 µM compound, no pre-incubation, triplicate, read-out: % Inhibition at 20 μM ± SD, SMOX) was 99.7 ± 0.1%, the IC50 (SMOX; AUC over 60 s, pH 8) was 540 nM and the inhibition at 20 µM (recombinant human MAO-A) was -6 ± 2.1%. For the same compound, the inhibition at 20 µM (recombinant human MAO-B) was -13.7 ± 3.8%.
